“Also recorded” adds a separate entry of the source.
Tests used:
sensory panel [1] = assay: Sensory (triangle) tests of the compounds in water; assay type: in vivo; conditions: for Sensory descriptors / Intensity (0-5): additive 10 mmol/L; for Sensory descriptors: pH 6.5; for Intensity (0-5): pH 6.5, aroma and taste intensity, scale 0-5; for kokumi sensation (in words): without inducing or glutamate-containing composition
Description: (§1) Unless otherwise indicated, all sensory tests for the samples are determined using triangle tests (Wieser and Belitz, Z. Lebensm. Unters. Forsch., 1975, 159, 65-72) in three different sessions. The sensory panel is trained to evaluate aqueous solutions (2 mL each) of the following reference taste compounds dissolved in bottled water with a pH of 6.0: sucrose (25 mmol/L) for sweet taste; lactic acid (20 mmol/L) for sour taste; NaCl (30 mmol/L) for salty taste; caffeine (1 mmol/L) for bitter taste; and MSG (3 mmol/L) for umami taste, tannic acid (0.05%) for puckering astringency, and quercetin-O-β-D-glucopyranoside (0.01 mmol/L) for a velvety astringent, mouth-drying oral sensation. For the training of viscosity, a gelatin solution (0.5% in water) was used. […] Sensory analyses were performed in a sensory panel room at 19-22° C. in three different sessions using nose clamps.
(§2) For recording the taste profiles, samples are prepared as indicated in the examples below. Flavor profiles of samples are determined in a triangle test in three different sessions. Panelists refrain from eating or drinking for at least 1 hour prior to the session. At the start of the session and before each trial, the subjects rinsed with water and expectorated. The participants receive a set of two blanks and one taste sample. Liquids are swirled around in the mouth briefly and expectorated. […] Each sample with additive is compared to two reference samples without additives. Kokumi intensity is rated according to a scale from 0 to 5 (with 5 being the most intensive). Punch refers to an initial kokumi sensation experienced in the mouth within 0-3 seconds from the time when a food or liquid is put in the mouth, while long-lasting refers to kokumi felt after 10-60 seconds therefrom.
Sensory (triangle) tests are performed by dissolving the listed compounds in water (Evian®). Additives are added as specified in table below. The pH-value of all samples is adjusted to 6.5 using formic acid (0.1 mol/L) or sodium hydroxide (0.1 mol/L). For each sample, aroma and taste intensity is rated and panelists are asked to describe sensory characteristics.

sensory panel [2] = assay: Sensory (triangle) tests: kokumi intensity in chicken broth; assay type: in vivo; conditions: for Kokumi intensity (0-5): pH 6.5, scale 0-5 (blank = 2); for kokumi effect (in words): Table 10; for Sensory descriptors: pH 6.5
Description: as §1, §2
Sensory (triangle) tests are performed by dilution of 3 grams of chicken broth concentrate (Gourmet Bouillon Huhn; Maggi, Singen, Germany) with 100 mL water (Evian®). Additives are added as specified in table below. The pH-value of all samples is adjusted to 6.5 using formic acid (0.1 mol/L) or sodium hydroxide (0.1 mol/L). […] For each sample, kokumi intensity is rated and panelists were asked to describe sensory characteristics.

| Molecule | Sensory descriptors (sensory panel [1]) | Intensity (0-5) (sensory panel [1]) | Kokumi intensity (0-5) (sensory panel [2]; additive 10 mmol/L) | other results |
| --- | --- | --- | --- | --- |
| CCSC[C@H](NC(=O)CC[C@H](N)C(=O)O)C(=O)O [γ-L-glutamyl-S-ethyl-L-cysteine] | tongue covering | 0.5 | 3.1 |  |
| CSC[C@H](NC(=O)CC[C@H](N)C(=O)O)C(=O)NCC(=O)O [S-methyl-glutathione] |  | 0 | 2.8 |  |
| N[C@@H](CCC(=O)N[C@@H](CS)C(=O)NCC(=O)O)C(=O)O [GSH, glutathione, reference compound] |  |  | 3.5 |  |
| N[C@@H](CCC(=O)O)C(=O)[O-].[Na+] [MSG, mono sodium glutamate, reference compound] |  |  | 2 | kokumi sensation (in words) (sensory panel [1]): no kokumi effect; kokumi effect (in words) (sensory panel [2]): no kokumi effect; Sensory descriptors (sensory panel [2]; additive 10 mmol/L): higher umami intensity; also recorded: increased umami |
| C[S+]([O-])C[C@H](NC(=O)CC[C@H](N)C(=O)O)C(=O)O (mixture of isomers) [γ-L-glutamyl-S-methyl-L-cysteine-(±)-SO] | flavourless | 0 | 2.5 |  |
| CCSC[C@H](N)C(=O)O [S-ethyl-L-cysteine] |  | 1 | 2.7 |  |
| S-methyl-L-cysteine-(±)-SO | flavourless | 0 | 2.1 |  |
| C/C=C/[S+]([O-])C[C@H](NC(=O)CC[C@H](N)C(=O)O)C(=O)O (mixture of isomers) [γ-L-glutamyl-(E)-S-1-propenyl-L-cysteine-(±)-SO] | onion aroma | 0.5 | 2.5 |  |
| CCC[S+]([O-])C[C@H](NC(=O)CC[C@H](N)C(=O)O)C(=O)O (mixture of isomers) [γ-L-glutamyl-S-propyl-L-cysteine-(±)-SO] | flavourless | 0 | 2.1 |  |
| [Cl-].[Na+] [NaCl, sodium chloride, reference compound] |  |  |  | kokumi sensation (in words) (sensory panel [1]): no kokumi effect; kokumi effect (in words) (sensory panel [2]): no kokumi effect; Sensory descriptors (sensory panel [2]; additive 30 mmol/L): more salty than the negative control; also recorded: increased salty taste; Kokumi intensity (0-5) (sensory panel [2]; additive 30 mmol/L): 2 |
| C/C=C/[S+]([O-])C[C@H](N)C(=O)O (mixture of isomers) [(E)-S-1-propenyl-L-cysteine-(±)-SO] | onion aroma | 0 | 2.2 |  |
| CSC[C@H](NC(=O)CC[C@H](N)C(=O)O)C(=O)O [γ-L-glutamyl-S-methyl-L-cysteine] | flavourless | 0 | 3.5 |  |
| C/C=C\SC[C@H](N)C(=O)O [(Z)-S-1-propenyl-L-cysteine] |  | 1 | 3.1 | Kokumi intensity (0-5) (sensory panel [2]; additive 5 mmol/L): 3.1 |
| CCCSC[C@H](N)C(=O)O [S-propyl-L-cysteine] |  | 2 | 3.5 | Kokumi intensity (0-5) (sensory panel [2]; additive 5 mmol/L): 3.5 |
| C/C=C/SC[C@H](NC(=O)CC[C@H](NCC(=O)[C@@H](O)[C@H](O)[C@H](O)CO)C(=O)O)C(=O)O [N-(1-Deoxy-D-fructos-1-yl)-γ-L-glutamyl-(E)-S-1-propenyl-L-cysteine] |  |  |  | Kokumi intensity (0-5) (sensory panel [2]; additive 4 mmol/L): 3.3 |
| C/C=C/SC[C@H](N)C(=O)O [(E)-S-1-propenyl-L-cysteine] | fresh onion aroma | 1 | 2.5 |  |
| CC[S+]([O-])C[C@H](NC(=O)CC[C@H](N)C(=O)O)C(=O)O (mixture of isomers) [γ-L-glutamyl-S-ethyl-L-cysteine-(±)-SO] | flavourless | 0 | 2.2 |  |

| Molecule | Sensory descriptors (sensory panel [1]) | Intensity (0-5) (sensory panel [1]) | Kokumi intensity (0-5) (sensory panel [2]; additive 10 mmol/L) | other results |
| --- | --- | --- | --- | --- |
| CCSC[C@H](NC(=O)CC[C@H](N)C(=O)O)C(=O)NCC(=O)O [S-ethyl-GSH, S-ethyl-γ-L-Glu-L-Cys-Gly] |  | 0 | 2.3 |  |
| C[S+]([O-])C[C@H](NC(=O)CC[C@H](N)C(=O)O)C(=O)NCC(=O)O (mixture of isomers) [S-methyl-GSH-(±)-SO, S-methyl-γ-L-Glu-L-Cys-(±)-SO-Gly] | flavourless | 0 | 2 | Sensory descriptors (sensory panel [2]; additive 10 mmol/L): same intensity as blank |
| C=CCSC[C@H](NC(=O)CC[C@H](N)C(=O)O)C(=O)NCC(=O)O [S-allyl-GSH, S-allyl-γ-L-Glu-L-Cys-Gly] |  | 0 | 3.2 |  |
| C=CCSC[C@H](NC(=O)CC[C@H](N)C(=O)O)C(=O)O [γ-L-glutamyl-S-allyl-L-cysteine] |  | 1 | 3.7 |  |
| C=CC[S+]([O-])C[C@H](NC(=O)CC[C@H](N)C(=O)O)C(=O)NCC(=O)O (mixture of isomers) [S-allyl-GSH-(±)-SO, S-allyl-γ-L-Glu-L-Cys-(±)-SO-Gly] | flavourless | 0 | 2.8 |  |
| CSC[C@H](N)C(=O)O [S-methyl-L-cysteine] | flavourless | 0 | 2.4 |  |
| C/C=C\[S+]([O-])C[C@H](N)C(=O)O (mixture of isomers) [(Z)-S-1-propenyl-L-cysteine-(±)-SO] | tongue covering, pungent | 1 | 2.2 |  |
| CC[S+]([O-])C[C@H](NC(=O)CC[C@H](N)C(=O)O)C(=O)NCC(=O)O (mixture of isomers) [S-ethyl-GSH-(±)-SO, S-ethyl-γ-L-Glu-L-Cys-(±)-SO-Gly] | flavourless | 0 | 2 | Sensory descriptors (sensory panel [2]; additive 10 mmol/L): same intensity as blank |
| S-allyl-L-cysteine-(+)-SO [Alliin] |  |  | 2.5 |  |
| CCCSC[C@H](NC(=O)CC[C@H](N)C(=O)O)C(=O)O [γ-L-glutamyl-S-propyl-L-cysteine] | tongue covering | 0.5 | 2.8 |  |
| CCC[S+]([O-])C[C@H](NC(=O)CC[C@H](N)C(=O)O)C(=O)NCC(=O)O (mixture of isomers) [S-propyl-GSH-(±)-SO, S-propyl-γ-L-Glu-L-Cys-(±)-SO-Gly] | flavourless | 0 | 2 | Sensory descriptors (sensory panel [2]; additive 10 mmol/L): same intensity as blank |
| C=CC[S@+]([O-])C[C@H](N)C(=O)O (racemic) [S-allyl-L-cysteine-(±)-SO] |  | 1 | 2.4 |  |
| S-ethyl-L-cysteine-(±)-SO |  | 1 | 2.1 |  |
| CCCSC[C@H](NC(=O)CC[C@H](N)C(=O)O)C(=O)NCC(=O)O [S-propyl-GSH, S-propyl-γ-L-Glu-L-Cys-Gly] | flavourless | 0 | 2.1 |  |
| C=CC[S+]([O-])C[C@H](NC(=O)CC[C@H](N)C(=O)O)C(=O)O (mixture of isomers) [γ-L-glutamyl-S-allyl-L-cysteine-(±)-SO] | burning | 0.5 | 2.5 |  |
| S-propyl-L-cysteine-(±)-SO |  | 1 | 2.3 | Kokumi intensity (0-5) (sensory panel [2]; additive 5 mmol/L): 2.3 |

— patent US8524302B2, “Natural flavour enhancers and methods for making same” (Pepsico, priority 2009, dated 2013)
